From patent publication US7262173B2, “Chemosensitizing with liposomes containing oligonucleotides” (Georgetown University, priority 1997, dated 2007)

What was measured:
[1] = Plasma pharmacokinetics of raf ODN after i.v. injection; format: in vivo, Balb/c nu/nu mice; conditions: 30 mg/kg i.v.
Procedure: FIG. 3: The plasma concentration-time profile of LE-ATG-AS raf ODN (SEQ ID NO:1), 30 mg/kg LE-ATG-AS raf ODN (SEQ ID NO:1) (top panel) or TG-AS raf ODN (SEQ ID NO:1) (middle panel) was administered […]. in […] nu/nu mice. Blood samples were collected from retro-orbital sinus as indicated times after injection and the ODNs in plasma samples were extracted and analyzed by denaturing gel electrophoresis as explained in the experimental procedures. St standards prepared by spiking known amounts of ATG-AS raf ODN (SEQ ID NO:1) in blank plasma. Top panel: Samples were diluted before electrophoresis as follows: lane 1, 12×; lanes 2 and 3, 4×; lanes 4 and 5, 3.3×; lane 6, 2×; lane 7, 1.4×; lane 8, 1.3×; and lane 9, I×. […] Additional standards (1.4 to >2 log range) were used to determine ODN concentration over a 24 hour period (data not shown). Middle panel: Samples were diluted before loading as follows: lane 1, 4×, lanes 2 and 3, 2×, lanes 4, 5 and 6, I×; lane 7, 0.75×, lanes 8 and […], 0.6×. […]
The extracts were loaded on to 20% polyacrylamide/3 M urea gels and electrophoresed in TBE buffer. […] The autoradiographs were scanned using a computer program (ImageQuant software, Molecular Dynamics, Sunnyvale, Calif., and USA), and the amounts of ATG-AS raf ODN (SEQ ID NO:1) in various samples were calculated by comparison to standards.

[2] = tested on: Raf-1; assay: Raf-1 expression in SQ-20B tumor xenografts after i.v. or intratumoral ODN; format: in vivo, human; conditions: intravenous treatment; compared with untreated controls
Procedure: FIG. 7: Effects of intravenous administration of LE-ATG-AS raf ODN (SEQ ID NO:1) our Raf-1 expression in normal and tumor tissues. Raf-1 expression was examined in liver, kidneys and SQ-20B tumor xenograft of Balb/c nu/nu mice after i.v. injections of 6 mg/kg daily dose of LE-ATG-AS raf ODN (SEQ ID NO:1) (AS) or LE-ATG-S raf ODN (SEQ ID NO:3) (S) for five consecutive days. Control mice (C) received normal saline. Representative data showing Raf-1 expression in lysates normalized for protein content by immunoprecipitation and immunoblotting (top). Quantification data are shown as mean±s.d. from three mice (bottom).
FIG. 8: Inhibition of Raf-1 protein expression in SQ-20B tumor xenografts by intratumoral administration of LE-ATG-AS raf ODN (SEQ ID NO:1): Each animal received intratumoral injections of LE-ATG-AS raf ODN (SEQ ID NO:1) (AS) on the right flank and LE-ATG-S raf ODN (SEQ ID NO:3) (S) on the left flank at a dose of 4 mg/kg daily for seven days as explained in the experimental procedures. […] Quantification data shown are mean±s.d., from three representative mice. […]
For in vivo expression studies, tumor tissue and organs were homogenized in the cell lysis buffer using Polytron homogenizer (Westbury, N.Y., USA). Raf-1 expression was analyzed in tissue homogenates by immunoprecipitation and immunoblotting as described above.

## 5′-GTG-CTCCATTGATGC-3′ (antisense GTGCTCCATTGATGC; DNA, linkages s1 o12 s1 (s phosphorothioate, o phosphodiester), methylation of C not given here) [ATG-AS raf ODN, antisense ODN to translation initiation site of human c-raf-1 cDNA; one terminal base linkage at each end phosphorothioate]
[1]; at 5 min
  plasma concentration: 9.75 µg/mL
[1]; free ODN
  only time at which intact ODN detectable in plasma: 5 min
[2]
  effect on Raf-1 expression in tumor tissue: no effect
